Results taken from patent US20250331522A1, “CHLORINE DIOXIDE […] TO PREVENT BLACK ROT DISEASE AND PROMOTE WOUND HEALING IN SWEETPOTATO” (Zhejiang A&F University, priority 2024, published 2025).

Assays:
[1] = tested on: C. fimbriata in sweetpotato; assay: Inhibitory effect on the growth of C. fimbriata in inoculated sweetpotato (lesion diameter and depth); type: in vivo, Ceratocystis fimbriata; Xinxiang sweetpotatoes; settings: fumigation 30 h, storage 15 days at 25° C., humidity 85%
Protocol: (§1) C. fimbriata preserved at −80° C. is thawed and resuscitated at 4° C., 200 μL C. fimbriata is taken into 15 mL PDA medium plates in the ultra-clean table and cultured at 28° C. for 7 d. After 7 d, 5 colonies of C. fimbriata are picked on the medium and inoculated into the expanding culture medium with an inoculation needle for further culture for 7 d. After 7 days, some of the expanding culture plates are used to prepare fungus pieces, and some plates are used to prepare spore suspension. Sterile water is added into the culture plate, the mycelium is scraped and filtered through four layers of sterile gauze to remove the mycelium and medium impurities, and the spore suspension of C. fimbriata is obtained. The spore concentration is calculated by the blood cell counting plate, and adjusted to 10^6 spore/mL.
The inhibitory effect of the combined reagents prepared by the method described in Embodiments 1-3 on the growth of C. fimbriata in sweetpotato is investigated, the method is as follows: […]

[2] = tested on: sweetpotato wounds inoculated with C. fimbriata; assay: Promotion of wound-healing ability of sweetpotatoes (disease index after re-inoculation with C. fimbriata); type: in vivo, Xinxiang sweetpotatoes; Ceratocystis fimbriata; settings: fumigation 30 h; spores applied on day 0, 1, 3, 5, 7 of healing; incidence counted after 7 days
Protocol: The effects of the combined reagents prepared by the method described in Embodiments 1-3 on promoting the wound-healing ability of sweetpotatoes are investigated, the method is as follows: […]
After the treatment, the fresh-keeping box is first ventilated, and the sweetpotatoes are transferred into a normal storage incubator (25° C., humidity 85%) for storage. During the storage of sweetpotatoes, 20 μL of fungus solution with a spore concentration of 10^6 spore/mL prepared in Embodiment 4 is evenly applied to the surface of the wounds on the 0th, 1st, 3rd, 5th and 7th day, respectively, the incidence of the disease after 7 days is counted and the disease index is calculated. […] The sweetpotatoes with perforation damage but without ClO2 treatment are used as the control group, and the disease index is calculated by the following formula: […]

C. fimbriata = assay: Inhibition of C. fimbriata in vitro (colony diameter on PDA plate after ClO2 fumigation); type: cell-based, Ceratocystis fimbriata; settings: ClO2 fumigation 4 h, culture 15 d
Protocol: as §1, with “Sterile water is added into the culture plate, the mycelium is scraped and filtered through four layers of sterile gauze to remove the mycelium and medium impurities, and the spore suspension of C. fimbriata is obtained.” left out, “spore/mL. […]” for “spore/mL.”
The expanding culture plate of C. fimbriata cultured in Embodiment 4 is selected, and the fungus piece is prepared by using a 10 mm sterile puncher, the fungus piece is reversely connected to the center of the PDA medium, and the PDA plate is placed in a 10 L fresh-keeping box, and the combined reagents prepared by the method described in Embodiments 1-3 are added, the plate is fumigated with ClO2 for 4 h, the culture plate is moved into a constant temperature incubator at 27° C. for 15 d after the treatment. The colony diameter of the culture plate is measured by the cross method every 3 days, the measurement is repeated three times, and the plate without ClO2 fumigation is used as the blank control.

Structure (SMILES): [O][Cl+][O-] [ClO2, chlorine dioxide]
- diameters and depths of the lesion of inoculated sweetpotatoes (in words) [1]: decreases significantly with the increase of treatment concentration
- resistance to infection / wound healing of sweetpotatoes (disease index, in words) [2]: after 5 days of healing can completely resist the infection of pathogenic fungus
- growth of C. fimbriata (in words) (C. fimbriata): directly inhibit the growth of C. fimbriata
